Data as given in US9822131B2, “Certain chemical entities, compositions and methods” (Intellikine LLC, priority 2008, dated 2017).

Assays:
Balb/c splenic B cells = experiment: B cell activation and proliferation assay (Alamar Blue); type: cell-based; settings: Mus musculus, read-out: B cell proliferation EC50
Procedure: The assay is performed in a 96 well microtiter plate using Alamar Blue reduction. Balb/c splenic B cells are purified over a Ficoll-Paque™ PLUS gradient followed by magnetic cell separation using a MACS B cell Isolation Kit (Miletenyi). Cells are plated in 90 ul at 50,000 cells/well in B Cell Media (RPMI+10% FBS+Penn/Strep+50 uM bME+5 mM HEPES). A compound disclosed herein is diluted in B Cell Media and added in a 10 ul volume. Plates are incubated for 30 min at 37 C and 5% CO2 (0.2% DMSO final concentration). A 50 ul B cell stimulation cocktail is then added containing either 10 ug/ml LPS or 5 ug/ml F(ab′)2 Donkey anti-mouse IgM plus 2 ng/ml recombinant mouse IL4 in B Cell Media. […] A volume of 15 uL of Alamar Blue reagent is added to each well and plates are incubated for 5 hours at 37 C and 5% CO2. Alamar Blue fluoresce is read at 560Ex/590Em, and IC50 or EC50 values are calculated using GraphPad Prism 5.

PI3K α = molecular target: T1, PI3K α (Homo sapiens, UniProt P42336); experiment: PI3K α in vitro kinase inhibition assay; type: biochemical
T1 construct: purchased Upstate
Procedure: (§1) IC50 values are measured using either a standard TLC assay for lipid kinase activity (described below) or a high-throughput membrane capture assay. Kinase reactions are performed by preparing a reaction mixture containing kinase, inhibitor (2% DMSO final concentration), buffer (25 mM HEPES, pH 7.4, 10 mM MgCl2), and freshly sonicated phosphatidylinositol (100 μg/ml). Reactions are initiated by the addition of ATP containing 10 μCi of γ-32P-ATP to a final concentration 10 or 100 μM and allowed to proceed for 5 minutes at room temperature. For TLC analysis, reactions are then terminated by the addition of 105 μl 1N HCl followed by 160 μl CHCl3:MeOH (1:1). The biphasic mixture is vortexed, briefly centrifuged, and the organic phase is transferred to a new tube using a gel loading pipette tip precoated with CHCl3. This extract is spotted on TLC plates and developed for 3-4 hours in a 65:35 solution of n-propanol:1M acetic acid. The TLC plates are then dried, exposed to a phosphorimager screen (Storm, Amersham), and quantitated.
(§2) Briefly, the assay is a time resolved FRET assay that indirectly measures PIP3 product formed by the activity of a PI3-K. The kinase reaction is performed in a microtiter plate (e.g., a 384 well microtiter plate). The total reaction volume is approximately 20 ul per well. In the first step, each well receives 2 ul of test compound in 20% dimethylsulphoxide resulting in a 2% DMSO final concentration. Next, approximately 14.5 ul of a kinase/PIP2 mixture (diluted in 1× reaction buffer) is added per well for a final concentration of 0.25-0.3 ug/ml kinase and 10 uM PIP2. […] To start the reaction, 3.5 ul of ATP (diluted in 1× reaction buffer) is added per well for a final concentration of 10 uM ATP. The plate is sealed and incubated for 1 hour at room temperature. The reaction is stopped by adding 5 ul of Stop Solution per well and then 5 μl of Detection Mix is added per well. The plate is sealed, incubated for 1 hour at room temperature, and then read on an appropriate plate reader. Data is analyzed and IC50s are generated using GraphPad Prism 5.

PI3K γ = molecular target: T2, PI3K γ (Homo sapiens, UniProt P48736); experiment: PI3K γ in vitro kinase inhibition assay; type: biochemical
T2 construct: purchased Sigma
T2 sequence (P48736 whole entry): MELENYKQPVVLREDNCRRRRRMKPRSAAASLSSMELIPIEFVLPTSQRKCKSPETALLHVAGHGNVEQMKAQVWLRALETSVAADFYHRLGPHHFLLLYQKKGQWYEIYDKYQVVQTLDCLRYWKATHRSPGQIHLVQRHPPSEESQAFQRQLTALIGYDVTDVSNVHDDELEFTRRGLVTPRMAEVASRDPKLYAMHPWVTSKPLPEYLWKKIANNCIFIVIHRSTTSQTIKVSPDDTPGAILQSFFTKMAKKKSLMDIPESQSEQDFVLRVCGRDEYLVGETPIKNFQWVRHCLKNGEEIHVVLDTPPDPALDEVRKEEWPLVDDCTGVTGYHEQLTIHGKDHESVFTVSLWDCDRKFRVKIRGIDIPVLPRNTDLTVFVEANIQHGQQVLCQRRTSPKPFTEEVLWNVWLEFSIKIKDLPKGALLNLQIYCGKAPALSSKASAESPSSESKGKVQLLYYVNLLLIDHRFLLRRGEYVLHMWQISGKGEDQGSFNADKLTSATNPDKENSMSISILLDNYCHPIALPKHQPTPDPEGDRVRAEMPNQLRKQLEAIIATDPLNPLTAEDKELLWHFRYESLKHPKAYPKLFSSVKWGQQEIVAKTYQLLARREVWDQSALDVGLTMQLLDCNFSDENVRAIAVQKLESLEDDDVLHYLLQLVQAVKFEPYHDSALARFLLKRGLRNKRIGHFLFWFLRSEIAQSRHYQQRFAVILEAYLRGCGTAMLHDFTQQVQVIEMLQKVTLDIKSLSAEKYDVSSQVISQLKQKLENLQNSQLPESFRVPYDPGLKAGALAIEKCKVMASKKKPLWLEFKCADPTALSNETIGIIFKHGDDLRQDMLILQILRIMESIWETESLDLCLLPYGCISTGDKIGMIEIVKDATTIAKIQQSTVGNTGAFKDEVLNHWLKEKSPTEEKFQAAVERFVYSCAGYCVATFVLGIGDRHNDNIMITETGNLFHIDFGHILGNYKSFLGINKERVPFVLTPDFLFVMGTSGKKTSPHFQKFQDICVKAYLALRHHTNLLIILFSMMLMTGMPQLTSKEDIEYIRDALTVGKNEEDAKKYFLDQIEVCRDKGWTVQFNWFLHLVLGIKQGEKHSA
Procedure: as §1, §2

PI3K δ = molecular target: T3, PI3K δ (Homo sapiens, UniProt O00329); experiment: PI3K δ in vitro kinase inhibition assay; type: biochemical
T3 construct: purchased Upstate
T3 sequence (O00329 whole entry): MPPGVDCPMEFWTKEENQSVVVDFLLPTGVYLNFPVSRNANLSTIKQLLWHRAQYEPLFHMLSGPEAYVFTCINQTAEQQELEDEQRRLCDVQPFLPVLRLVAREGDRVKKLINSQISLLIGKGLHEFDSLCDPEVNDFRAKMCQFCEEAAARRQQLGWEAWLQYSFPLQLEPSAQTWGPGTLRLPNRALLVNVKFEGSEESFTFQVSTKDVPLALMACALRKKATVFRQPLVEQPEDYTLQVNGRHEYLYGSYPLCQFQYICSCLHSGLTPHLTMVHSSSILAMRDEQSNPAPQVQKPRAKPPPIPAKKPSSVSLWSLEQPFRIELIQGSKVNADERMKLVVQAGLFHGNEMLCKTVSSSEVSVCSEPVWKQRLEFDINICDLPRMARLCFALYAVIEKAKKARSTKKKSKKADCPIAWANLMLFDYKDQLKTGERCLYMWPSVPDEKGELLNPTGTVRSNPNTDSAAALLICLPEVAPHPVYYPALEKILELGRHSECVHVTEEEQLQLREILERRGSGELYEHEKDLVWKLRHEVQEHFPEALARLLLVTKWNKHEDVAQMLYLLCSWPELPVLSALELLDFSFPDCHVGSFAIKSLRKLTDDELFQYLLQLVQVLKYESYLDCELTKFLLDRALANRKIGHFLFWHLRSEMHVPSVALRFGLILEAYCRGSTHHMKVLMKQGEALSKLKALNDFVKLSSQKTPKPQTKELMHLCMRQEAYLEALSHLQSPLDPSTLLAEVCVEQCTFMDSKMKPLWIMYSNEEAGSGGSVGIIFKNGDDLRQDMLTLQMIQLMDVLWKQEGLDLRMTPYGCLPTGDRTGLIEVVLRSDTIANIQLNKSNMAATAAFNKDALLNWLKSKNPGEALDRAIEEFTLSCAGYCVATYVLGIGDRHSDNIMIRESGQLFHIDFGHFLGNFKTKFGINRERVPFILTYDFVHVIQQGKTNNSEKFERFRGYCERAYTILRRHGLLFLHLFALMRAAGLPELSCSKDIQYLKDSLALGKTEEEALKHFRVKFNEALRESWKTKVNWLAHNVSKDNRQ
T3 sequence (P27986 whole entry partner): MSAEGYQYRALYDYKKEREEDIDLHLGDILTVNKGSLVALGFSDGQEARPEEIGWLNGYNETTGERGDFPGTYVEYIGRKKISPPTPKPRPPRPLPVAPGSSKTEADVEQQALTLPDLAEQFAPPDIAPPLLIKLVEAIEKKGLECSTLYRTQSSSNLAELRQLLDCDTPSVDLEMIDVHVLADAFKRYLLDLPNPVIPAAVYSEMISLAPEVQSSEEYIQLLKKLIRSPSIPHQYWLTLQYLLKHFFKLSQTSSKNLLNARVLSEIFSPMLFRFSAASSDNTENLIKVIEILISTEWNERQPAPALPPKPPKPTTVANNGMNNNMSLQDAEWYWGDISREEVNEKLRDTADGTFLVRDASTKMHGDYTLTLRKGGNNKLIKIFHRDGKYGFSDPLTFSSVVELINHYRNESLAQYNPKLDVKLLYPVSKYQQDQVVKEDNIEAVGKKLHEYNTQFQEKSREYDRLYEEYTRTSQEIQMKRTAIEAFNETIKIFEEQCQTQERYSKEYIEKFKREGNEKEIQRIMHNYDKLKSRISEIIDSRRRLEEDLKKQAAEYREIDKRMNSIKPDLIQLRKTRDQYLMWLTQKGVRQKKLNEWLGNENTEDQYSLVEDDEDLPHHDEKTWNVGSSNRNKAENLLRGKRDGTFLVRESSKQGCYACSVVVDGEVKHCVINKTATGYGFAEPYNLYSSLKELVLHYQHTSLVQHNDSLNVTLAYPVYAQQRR
Procedure: as §1, §2

PI3K β = molecular target: T4, PI3K β (Homo sapiens, UniProt P42338); experiment: PI3K β in vitro kinase inhibition assay; type: biochemical
T4 construct: purchased Upstate
T4 sequence (P42338 whole entry): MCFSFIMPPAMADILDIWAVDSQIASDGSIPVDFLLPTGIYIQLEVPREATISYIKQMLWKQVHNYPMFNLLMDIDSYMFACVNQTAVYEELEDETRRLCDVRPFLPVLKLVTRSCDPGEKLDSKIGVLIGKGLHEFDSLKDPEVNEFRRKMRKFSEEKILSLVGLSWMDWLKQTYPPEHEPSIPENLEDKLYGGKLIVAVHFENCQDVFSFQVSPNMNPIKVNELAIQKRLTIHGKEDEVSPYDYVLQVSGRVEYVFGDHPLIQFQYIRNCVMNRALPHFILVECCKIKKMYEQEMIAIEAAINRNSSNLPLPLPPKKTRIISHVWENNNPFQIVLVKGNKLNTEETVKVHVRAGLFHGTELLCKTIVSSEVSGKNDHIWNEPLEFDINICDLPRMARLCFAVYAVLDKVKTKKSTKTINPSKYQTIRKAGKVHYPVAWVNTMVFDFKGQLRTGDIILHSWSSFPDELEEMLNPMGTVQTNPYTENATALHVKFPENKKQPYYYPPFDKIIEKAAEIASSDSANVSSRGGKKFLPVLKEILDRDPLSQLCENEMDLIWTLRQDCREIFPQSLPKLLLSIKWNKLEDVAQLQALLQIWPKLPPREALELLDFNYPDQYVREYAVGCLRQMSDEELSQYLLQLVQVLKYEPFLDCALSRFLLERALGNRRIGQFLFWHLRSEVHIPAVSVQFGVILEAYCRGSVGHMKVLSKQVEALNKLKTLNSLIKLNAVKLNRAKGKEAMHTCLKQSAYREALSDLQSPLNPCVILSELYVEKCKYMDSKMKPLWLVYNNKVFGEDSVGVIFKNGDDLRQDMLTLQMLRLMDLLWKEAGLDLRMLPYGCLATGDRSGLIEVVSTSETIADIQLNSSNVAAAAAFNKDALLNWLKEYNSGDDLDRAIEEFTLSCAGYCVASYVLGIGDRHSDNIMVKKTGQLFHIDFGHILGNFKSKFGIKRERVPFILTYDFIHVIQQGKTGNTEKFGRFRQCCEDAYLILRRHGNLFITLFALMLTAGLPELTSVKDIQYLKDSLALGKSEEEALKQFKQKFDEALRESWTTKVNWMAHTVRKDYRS
T4 sequence (P27986 whole entry partner): as the sequence (P27986 whole entry partner) above
Procedure: as §1, §2

T1 sequence (P42336 whole entry): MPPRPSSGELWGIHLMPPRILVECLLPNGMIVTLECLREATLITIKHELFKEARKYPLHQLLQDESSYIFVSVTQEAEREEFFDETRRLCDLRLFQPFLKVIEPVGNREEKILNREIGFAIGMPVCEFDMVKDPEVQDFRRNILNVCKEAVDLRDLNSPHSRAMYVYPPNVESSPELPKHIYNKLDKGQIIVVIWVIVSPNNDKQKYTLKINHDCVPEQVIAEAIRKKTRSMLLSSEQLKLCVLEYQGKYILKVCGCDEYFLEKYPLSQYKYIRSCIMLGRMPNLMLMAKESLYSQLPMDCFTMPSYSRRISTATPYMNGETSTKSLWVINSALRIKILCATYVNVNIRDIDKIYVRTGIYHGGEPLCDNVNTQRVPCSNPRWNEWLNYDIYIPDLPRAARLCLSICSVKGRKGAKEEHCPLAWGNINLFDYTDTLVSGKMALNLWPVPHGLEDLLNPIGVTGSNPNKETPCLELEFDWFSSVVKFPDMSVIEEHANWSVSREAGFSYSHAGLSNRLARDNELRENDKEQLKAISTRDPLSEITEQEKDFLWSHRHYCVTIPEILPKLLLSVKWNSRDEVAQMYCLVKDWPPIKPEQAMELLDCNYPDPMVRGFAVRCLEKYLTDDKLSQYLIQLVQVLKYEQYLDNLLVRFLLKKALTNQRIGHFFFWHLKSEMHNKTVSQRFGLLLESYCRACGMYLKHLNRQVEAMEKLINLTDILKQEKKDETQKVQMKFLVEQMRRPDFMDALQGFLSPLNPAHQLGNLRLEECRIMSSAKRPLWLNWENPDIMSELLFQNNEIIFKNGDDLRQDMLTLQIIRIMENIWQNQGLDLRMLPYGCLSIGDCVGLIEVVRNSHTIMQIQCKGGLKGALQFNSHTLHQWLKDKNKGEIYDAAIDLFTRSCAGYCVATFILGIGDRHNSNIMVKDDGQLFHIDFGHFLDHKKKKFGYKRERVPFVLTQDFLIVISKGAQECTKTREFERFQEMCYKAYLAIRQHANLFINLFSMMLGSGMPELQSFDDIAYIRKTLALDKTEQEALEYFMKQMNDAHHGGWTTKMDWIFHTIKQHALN
T1 sequence (P27986 whole entry partner): as the sequence (P27986 whole entry partner) above

Row | SMILES | EC50 (Balb/c splenic B cells) [µM] | IC50 (PI3K α) [µM] | IC50 (PI3K γ) [µM] | IC50 (PI3K δ) [µM] | IC50 (PI3K β) [µM]
1 | Cc1ccccc1-n1c(Cn2nc(I)c3c(N)ncnc32)nc2nccc(C)c2c1=O [Compound 199] | < 0.1 | > 10 | < 10 | < 1 | > 10
2 | Cc1ccccc1-n1c(Cn2nc(-c3cc(O)cc(F)c3)c3c(N)ncnc32)nc2nccc(C)c2c1=O [Compound 200] | < 10 | > 10 | > 10 | < 1 | > 10
3 | Cc1ccccc1-n1c(Cn2nc(C#CC3CC3)c3c(N)ncnc32)nc2nccc(C)c2c1=O [Compound 202] | < 10 | > 10 | > 10 | < 1 | > 10
4 | Cc1ccccc1-n1c(Cn2nc(Cl)c3c(N)ncnc32)nc2nccc(C)c2c1=O [Compound 203] | < 1 | > 10 | < 10 | < 0.1 | > 10
5 | Cc1ccccc1-n1c(Cn2nc(Br)c3c(N)ncnc32)nc2nccc(C)c2c1=O [Compound 204] | < 1 | > 10 | > 10 | < 0.1 | > 10
6 | Cc1ccnc2nc(Cn3nc(C#CC4CC4)c4c(N)ncnc43)n(-c3ccccc3Cl)c(=O)c12 [Compound 208] | < 10 | > 10 | > 10 | < 10 | > 10
7 | Cc1nn(Cc2nc3nccc(C)c3c(=O)n2-c2ccccc2F)c2ncnc(N)c12 [Compound 210] | < 10 | > 10 | > 10 | < 10 | > 10
8 | Cc1ccccc1-n1c(Cn2nc(-c3cccc(O)c3)c3c(N)ncnc32)nc2c(C)nn(C)c2c1=O [Compound 217] | < 10 | > 10 | > 10 | < 10 | > 10
9 | Cc1ccccc1N1C(=O)C2C(C=NN2C)N=C1Cn1nc(-c2cc(O)cc(F)c2)c2c(N)ncnc21 (stereo not shown) [Compound 221] | < 1 | > 10 | > 10 | < 0.1 | > 10
10 | Cc1ccccc1-n1c(Cn2nc(C#CC3CC3)c3c(N)ncnc32)cc2nccc(C)c2c1=O [Compound 225] | < 1 | > 10 | > 10 | < 1 | > 10
11 | Cc1ccccc1-n1c(Cn2nc(-c3ccc(O)c(F)c3)c3c(N)ncnc32)cc2nccc(C)c2c1=O [Compound 226] | < 1 | > 10 | < 1 | < 0.1 | > 10
12 | Cc1ccnc2cc(Cn3nc(-c4cc(O)cc(F)c4)c4c(N)ncnc43)n(-c3ccccc3F)c(=O)c12 [Compound 231] | < 0.1 | > 10 | < 1 | < 0.1 | > 10
13 | Cc1ccccc1-n1c(Cn2nc(-c3cccc(O)c3)c3c(N)ncnc32)nc2snc(C)c2c1=O [Compound 241] | – | > 10 | < 10 | < 1 | > 10
14 | Cc1ccccc1-n1c(Cn2nc(I)c3c(N)ncnc32)nc2scc(C)c2c1=O [Compound 242] | < 0.1 | > 10 | < 1 | < 0.1 | > 10
15 | Cc1ccccc1-n1c(Cn2nc(C)c3c(N)ncnc32)nc2scc(C)c2c1=O [Compound 246] | < 1 | > 10 | < 0.1 | < 0.1 | > 10
16 | Cc1ccccc1-n1c(Cn2nc(Cl)c3c(N)ncnc32)nc2scc(C)c2c1=O [Compound 249] | < 0.1 | > 10 | < 1 | < 0.1 | > 10
17 | Cc1ccccc1-n1c(Cn2nc(Br)c3c(N)ncnc32)nc2scc(C)c2c1=O [Compound 250] | < 0.1 | > 10 | < 1 | < 0.1 | > 10
18 | Cc1csc2nc(Cn3nc(-c4cc(O)cc(F)c4)c4c(N)ncnc43)n(-c3ccccc3F)c(=O)c12 [Compound 258] | < 0.1 | > 10 | < 0.1 | < 0.1 | > 10
19 | Cc1csc2nc(Cn3nc(-c4ccc(F)c(O)c4)c4c(N)ncnc43)n(-c3ccccc3F)c(=O)c12 [Compound 259] | < 0.1 | > 10 | < 1 | < 0.1 | > 10
20 | Cc1csc2nc(Cn3nc(C#C[C@@H](C)O)c4c(N)ncnc43)n(-c3ccccc3F)c(=O)c12 [Compound 261] | < 1 | > 10 | < 0.1 | < 0.1 | > 10

Row | SMILES | EC50 (Balb/c splenic B cells) [µM] | IC50 (PI3K α) [µM] | IC50 (PI3K γ) [µM] | IC50 (PI3K δ) [µM] | IC50 (PI3K β) [µM]
21 | Cc1csc2nc(Cn3nc(-c4ccc(O)cc4)c4c(N)ncnc43)n(-c3ccccc3F)c(=O)c12 [Compound 263] | < 10 | > 10 | < 10 | < 10 | > 10
22 | Cc1ccccc1-n1c(Cn2nc(-c3ccc(O)c(Cl)c3)c3c(N)ncnc32)nc2scc(C)c2c1=O [Compound 269] | – | > 10 | < 0.1 | < 0.1 | < 10
23 | Cc1cccnc1-n1c(Cn2nc(Cl)c3c(N)ncnc32)nc2scc(C)c2c1=O [Compound 270] | – | > 10 | < 10 | < 1 | > 10
24 | COc1ccccc1-n1c(Cn2nc(Br)c3c(N)ncnc32)nc2scc(C)c2c1=O [Compound 274] | – | > 10 | < 1 | < 0.1 | > 10
25 | COc1ccccc1-n1c(Cn2nc(-c3cccc(O)c3)c3c(N)ncnc32)nc2scc(C)c2c1=O [Compound 275] | < 0.1 | > 10 | < 1 | < 0.1 | < 10
26 | Cc1csc2nc(Cn3nc(Cl)c4c(N)ncnc43)n(-c3ccccc3C(F)(F)F)c(=O)c12 [Compound 280] | < 0.1 | > 10 | < 1 | < 0.1 | > 10
27 | Cc1csc2nc(Cn3nc(-c4cccc(O)c4)c4c(N)ncnc43)n(-c3ccccc3C(F)(F)F)c(=O)c12 [Compound 281] | < 0.1 | > 10 | < 0.1 | < 0.1 | < 10
28 | Cc1csc2nc(Cn3nc(C#C[C@@H](C)O)c4c(N)ncnc43)n(-c3ncccc3C(F)(F)F)c(=O)c12 [Compound 282] | < 0.1 | > 10 | < 10 | < 0.1 | < 10
29 | CCc1ccccc1-n1c(Cn2nc(Br)c3c(N)ncnc32)nc2scc(C)c2c1=O [Compound 283] | < 0.1 | > 10 | < 0.1 | < 0.1 | < 10
30 | Cc1csc2nc(Cn3nc(I)c4c(N)ncnc43)n(-c3ccccc3C(C)C)c(=O)c12 [Compound 284] | < 0.1 | > 10 | < 0.1 | < 0.1 | < 10
31 | Cc1cc2c(=O)n(-c3ccccc3C)c(Cn3nc(Br)c4c(N)ncnc43)nc2s1 [Compound 285] | – | > 10 | > 10 | < 10 | > 10
32 | Cc1csc2nc(Cn3nc(Br)c4c(N)ncnc43)n(-c3ccccc3Cl)c(=O)c12 [Compound 286] | < 0.1 | > 10 | < 1 | < 0.1 | < 10
33 | CCc1ccccc1-n1c(Cn2nc(-c3cccc(O)c3)c3c(N)ncnc32)nc2scc(C)c2c1=O [Compound 290] | < 0.1 | > 10 | < 0.1 | < 0.1 | < 10
34 | CCc1ccccc1-n1c(Cn2nc(-c3cc(O)cc(F)c3)c3c(N)ncnc32)nc2scc(C)c2c1=O [Compound 292] | < 0.1 | > 10 | < 0.1 | < 0.1 | < 1
35 | Cc1cc2c(=O)n(-c3ccccc3C)c(Cn3nc(-c4cccc(O)c4)c4c(N)ncnc43)nc2s1 [Compound 294] | – | > 10 | > 10 | < 10 | > 10
36 | Cc1csc2nc(Cn3nc(-c4cc(O)cc(F)c4)c4c(N)ncnc43)n(-c3ccccc3Cl)c(=O)c12 [Compound 296] | < 0.1 | < 10 | > 10 | < 0.1 | < 1
37 | Cc1cccnc1-n1c(Cn2nc(-c3cc(O)cc(F)c3)c3c(N)ncnc32)nc2scc(C)c2c1=O [Compound 297] | < 0.1 | > 10 | > 10 | < 0.1 | < 10
38 | Cc1ccccc1-n1c(Cn2nc(-c3cccc(O)c3)c3c(N)ncnc32)nc2sc(C)c(C)c2c1=O [Compound 299] | – | > 10 | > 10 | < 1 | > 10
39 | Cc1ccccc1-n1c(Cn2nc(Br)c3c(N)ncnc32)nc2sc(C)c(C)c2c1=O [Compound 301] | – | > 10 | > 10 | < 0.1 | > 10
